Source: article PMC5435687 (Scientific Reports, 2017)

Experiments:
[1] = system: SH-SY5Y cells; assay: Aβ uptake under pharmacological inhibition of endocytic mechanisms (flow cytometry); type: cell-based, human; conditions: for effect of CPZ on Aβ uptake: 5 µg/ml CPZ; for reduction in Aβ uptake with cytochalasin A or D: 10 µM cytochalasin A or 25 µg/ml cytochalasin D
Protocol: Flow cytometry was used to quantify cellular uptake. […] For experiments including Trf B-27 was omitted, as outlined above. […] All samples were kept on ice until they were analysed on a Guava EasyCyte 8HT (Millipore, Darmstadt, Germany) that automatically retrieves samples from a 96-well plate. In order to exclude effects due to difference in delay time we used mixed order of analysis, loading only a few samples at a time with the remaining samples kept on ice. The cell counting gate was determined using propidium iodide (0.5 µM, not washed away prior to analysis) and calcein-AM (10 nM, 15 min staining) to distinguish live and dead cells, and for each sample 5,000 cells from within the live gate were counted and analysed. HF488, AlexaFluor488, EGFP and calcein-AM were excited by a 488 nm laser and their fluorescence was detected through a 525/30 nm filter. Propidium iodide and mRFP were excited by the 488 nm laser but detected through a 692/46 nm filter. HF647 and AlexaFluor647 were excited with a 635 nm laser and detected through a 661/19 nm filter. Compensation was performed to adjust for bleed through in experiments including mRFP. Mean cellular uptake was estimated as the average fluorescence intensity of all cells gated within the live region and all individual experiments were performed with three technical replicates (n = 3) unless else is stated. The average fluorescence intensity was baseline corrected by subtracting the signal for unstained cells.
Endocytic mechanisms were also perturbed by treatment of cells with pharmacological inhibitors. Stock solutions of cytochalasin A, cytochalasin D, dynasore, wortmannin and IPA-3 were prepared in DMSO and diluted in serum-free cell culture media supplemented with 30 mM HEPES on the day of the experiment. The final DMSO concentration added to the cells was kept <0.1% and matched for the control. […] The cells were centrifuged 1000 * g for 5 min at 4 °C, washed 3x with ice-cold serum-free medium, followed by detachment and immediate flow cytometry analysis, as detailed above. […] Only the live cells were included in the analysis. Trf was used as a positive control for clathrin-mediated endocytosis. Due to the rapid uptake and recycling of internalized Trf we adopted an optimized protocol with sufficiently short Trf incubation times. First, to remove the quantities of membrane-bound Trf that originate from the serum component of the complete culture medium the cells were washed 3x in serum-free medium. The cells were then subjected to the inhibitors as described above and thereafter exposed to a 5 min pulse of 5 µg/ml Trf. To remove externally bound fluorescently labelled Trf the cells were thereafter washed (3x/2 min) in ice-cold acidic buffer (0.1 M Glycine-HCl buffer pH 2.5 with 150 mM NaCl)[35] whilst kept on ice. The cells were then harvested for flow cytometry analysis, and analysed one sample at a time with mixed order of analysis whilst keeping the remaining samples on ice.

[2] = SDS-PAGE of peptide solutions, band quantification (monomer fraction); type: physicochemical; conditions: 1 µM HF488-labelled peptide in cell culture medium after HFIP pre-treatment; NuPAGE 4–12% Bis-Tris gel, fluorescence scan, ImageJ
Protocol: The lyophilized Aβ peptide powders were dissolved in hexafluoro-2-propanol to disrupt any aggregates[26] and monomerize the peptide. The solutions were vortexed briefly and aliquoted at 4 °C. The solvent in each aliquot was evaporated at 37 °C for 60 min using a RVC 2–18 CD Rotational Vacuum concentrator (Martin Christ, Germany). The remaining peptide films were snap frozen in liquid nitrogen and kept at −80 °C until further use. For concentration determinations the peptide film was dissolved in 1% ammonium hydroxide (v/v) and the absorption of the dye label was measured on a Cary 4000 UV-Vis Spectrophotometer (Agilent Technologies, Santa Clara, CA, US). Extinction coefficients of 70,000 M^−1cm^−1 at 504 nm and 250 000 M^−1cm^−1 at 649 nm was used for the HF488 and HF647 dye labels, respectively, according to the information provided by the manufacturer. Prior to each experiment one peptide film was dissolved in a small volume 1% ammonium hydroxide (v/v) and diluted with cell culture medium supplemented with 30 mM HEPES. […] The HF488 dye was excited by a 488 nm laser and emission detected through a 520/40 nm filter. After background correction, the gel bands corresponding to monomer, dimer and trimer species were quantified in ImageJ (NIH, Bethesda, Maryland, US) by integrated intensity of the respective bands.

[3] = 1 µM HF488-labelled Aβ 1 h, 4 independent experiments in triplicate
[4] = 30 min pre-incubation, 1 µM Aβ 1 h, n = 3

Aβ(1–40): Synthetic 40 residue amyloid-β peptide conjugated to HiLyte Fluor HF488 (or HF647) at the N-terminus, from Anaspec
effect of CPZ on Aβ uptake [1, 3]: reductions
reduction in Aβ uptake with IPA-3 and wortmannin ([1]; 10 µM IPA-3 or 25 nM wortmannin, 30 min pre-incubation, 1 µM Aβ 1 h, n = 3): ~ 50%
reduction in Aβ uptake with cytochalasin A or D [1, 4]: ~ 30%
monomer fraction by SDS-PAGE band intensities [2]: 84%

Aβ(1–42): Synthetic 42 residue amyloid-β peptide conjugated to HiLyte Fluor HF488 (or HF647) at the N-terminus, from Anaspec
effect of CPZ on Aβ uptake [1, 3]: impaired to a greater extent than that of Aβ(1–40)
reduction in Aβ uptake with cytochalasin A or D [1, 4]: ~ 70%
effect of dynasore on Aβ uptake ([1]; 80 µM dynasore, 30 min pre-incubation, 1 µM HF488-labelled Aβ 1 h, 4 independent experiments in triplicate, ANOVA with Bonferroni): statistically significantly reduced
monomer fraction by SDS-PAGE band intensities [2]: 86%
